# Source: US7112581B2, “Macrocyclic lactams” (Nereus Pharmaceuticals, Inc., priority 2002, dated 2006)
# Several values for one entry are separate records, joined by “and”; a condition that tells them apart may be missing. Equal entries are not always repeated. Where two headings read alike, the source gives them in different places.
# Experiments:
# [1] = tested on: PC-3 (ATCC CRL-1435) human prostate adenocarcinoma; assay: tumor cytotoxicity assay (resazurin), PC-3; format: cell-based; conditions: 48 h, read-out: EC50 for the PC3 assay
# [2] = tested on: Jurkat (ATCC TIB-152) human acute T cell leukemia; assay: tumor cytotoxicity assay (resazurin), Jurkat; format: cell-based
# Protocol: (§1) Jurkat (ATCC TIB-152) a human acute T cell leukemia was maintained in RPMI complete medium (RPMI 1640 medium supplemented with 10% FBS, 2 mM L-glutamine, 10 mM HEPES, 1 mM Na pyruvate, 1X NEAA, and Pen/Strep at 100 IU/ml and 100 μg/ml, respectively). Cell lines were cultured at 37° C., 5% CO2 in a 95% humidified incubator. For tumor cytotoxicity assays HT-29, PC-3, or B16-F10 cells were seeded at 5×10^3, 5×10^3 or 1.25×10^3 cells/well cells were seeded at 5,000 cells/well in 90 μl complete media into a Corning 3904 black-walled, clear-bottom tissue culture plate and the plate were incubated overnight to allow cells to establish and enter log phase growth. […] Because living cells metabolize Resazurin, the fluorescence of the reduction product of Resazurin was measured using a Fusion microplate fluorometer (Packard Bioscience) with λex=535 nm and λem=590 nm filters. The plates were removed and resazurin fluorescence was measured using 530 nm excitation and 590 nm emission filters in a Fusion fluorimeter (Packard Instruments). […] The data were analyzed using Prism software (GraphPad Software). The data were normalized to the average of the cells treated with media only (100% cell growth) and EC50 values were determined using a standard sigmoidal dose response curve fitting algorithm.
# [3] = tested on: Escherichia coli ATCC 610100; assay: antimicrobial resazurin growth assay, E. coli; format: cell-based; conditions: ATCC610100, 37° C., 4 to 6 hours
# Protocol: (§2) The biological characteristics of compound of Formula (I) were evaluated in Escherichia coli ATCC 610100, Pseudomonas aeruginosa ATCC 614000, Haemophilus influenzae A21515, Staphylococcus aureus, methicillin resistant (MRSA) ATCC 605000, Enterococcus faecalis ATCC 662000, Streptococcus pneumoniae ATCC 661100 and Candida glabrata ATCC 200918. All cultures were maintained in Brain Heart Infusion Medium (Oxoid), except C. glabrata, which was maintained in Potato Dextrose Broth (Difco).
# (§3) For antimicrobial assays of E. coli, P. aeruginosa, H. influenzae, MRSA, E. faecalis and S. pneumoniae, the cells in Brain Heart Infusion Medium were added to 96 well plates at a volume of 176 μl/well. The compound to be tested was added to the wells (20 μl/well) together with 10 μl of 0.2 mg/ml resazurin (Sigma). The plates were incubated at 37° C. for 4 to 6 hours. The growth of the cultures was monitored by measuring the fluorescence of the plates using a fluorometer with λex=535 nm and λem=590 nm filters. Resazurin dye without cells was used to determine the background, which was subtracted from the data for all experimental wells. The data were analyzed using Prism software (GraphPad Software). The data were normalized to the average of the cells treated with media only (100% cell growth) and the IC50 values were determined using a standard sigmoidal dose response curve fitting algorithm.
# Escherichia coli imp = assay: susceptibility assay by broth microdilution (NCCLS), E. coli; format: cell-based
# solubility (observation) = format: physicochemical
# [4] = tested on: vancomycin-sensitive Enterococcus faecalis; assay: susceptibility assay by broth microdilution (NCCLS), E. faecalis; format: cell-based; conditions: Enterococcus faecalis VSE
# Protocol: (§4) The anti-infective potential of the compound was re-evaluated in susceptibility assays performed by broth microdilution in accordance with National Committee for Clinical Laboratory Standards (NCCLS) guidelines, M7-A5, January 2000. The compound was tested versus the following microorganisms: Staphylococcus aureus (MSSA), Staphylococcus aureus (MRSA), Streptococcus pneumoniae, vancomycin-sensitive Enterococcus faecalis, Haemophilus influenzae, Pseudomonas aeruginosa and Candida albicans.
# [5] = tested on: Haemophilus influenzae 49766; assay: susceptibility assay by broth microdilution (NCCLS), H. influenzae; format: cell-based
# Protocol: as §4
# [6] = tested on: Haemophilus influenzae A21515; assay: antimicrobial resazurin growth assay, H. influenzae; format: cell-based; conditions: 37° C., 4 to 6 hours
# Protocol: as §2, §3
# [7] = tested on: Streptococcus pneumoniae ATCC 661100; assay: antimicrobial resazurin growth assay, S. pneumoniae; format: cell-based; conditions: ATCC661100, 37° C., 4 to 6 hours
# Protocol: as §2, §3
# [8] = tested on: HT-29 (ATCC HTB-38) human colorectal adenocarcinoma; assay: tumor cytotoxicity assay (resazurin), HT-29; format: cell-based; conditions: HT-29, 48 h
# Protocol: HT-29 (ATCC HTB-38) a human colorectal adenocarcinoma was maintained in McCoy's complete medium (McCoy's 5A medium with L-glutamine and 25 mM HEPES supplemented with 10% FBS, 1 mM Na pyruvate, 1X NEAA, 2 mM L-glutamine, and Pen/Strep at 100 IU/ml and 100 μg/ml, respectively). Cell lines were cultured at 37° C., 5% CO2 in a 95% humidified incubator. For tumor cytotoxicity assays HT-29, PC-3, or B16-F10 cells were seeded at 5×10^3, 5×10^3 or 1.25×10^3 cells/well cells were seeded at 5,000 cells/well in 90 μl complete media into a Corning 3904 black-walled, clear-bottom tissue culture plate and the plate were incubated overnight to allow cells to establish and enter log phase growth. Jurkat cells were seeded on the day of compound addition at 2×10^4 cells/well in 90 μl complete media into a Corning 3904 black-walled, clear-bottom tissue culture plate. 20 mM stock solutions of the compound of Formula (I) were prepared in 100% DMSO and stored at −20° C. 10×concentrated serial dilutions of the compounds were prepared in appropriate culture medium for final concentrations ranging from 2×10–5 to 2×10–12. Ten μl volumes of the 10×serial dilutions were added to the test wells in triplicate and the plates returned to the incubator for 48 hours. The final concentration of DMSO was 0.25% in all samples. […] Because living cells metabolize Resazurin, the fluorescence of the reduction product of Resazurin was measured using a Fusion microplate fluorometer (Packard Bioscience) with λex=535 nm and λem=590 nm filters. The plates were removed and resazurin fluorescence was measured using 530 nm excitation and 590 nm emission filters in a Fusion fluorimeter (Packard Instruments). […] The data were analyzed using Prism software (GraphPad Software). The data were normalized to the average of the cells treated with media only (100% cell growth) and EC50 values were determined using a standard sigmoidal dose response curve fitting algorithm.
# Candida albicans 90028 = assay: susceptibility assay by broth microdilution (NCCLS), C. albicans; format: cell-based
# Protocol: as §4
# [9] = tested on: Enterococcus faecalis ATCC 662000; assay: antimicrobial resazurin growth assay, E. faecalis; format: cell-based; conditions: ATCC662000, 37° C., 4 to 6 hours
# Protocol: as §2, §3
# [10] = tested on: Staphylococcus aureus, methicillin resistant (MRSA) ATCC 605000; assay: antimicrobial resazurin growth assay, MRSA; format: cell-based; conditions: 37° C., 4 to 6 hours
# Protocol: as §2, §3
# [11] = tested on: Streptococcus pneumoniae 49619; assay: susceptibility assay by broth microdilution (NCCLS), S. pneumoniae; format: cell-based
# Protocol: as §4
# [12] = tested on: Staphylococcus aureus (MSSA); assay: susceptibility assay by broth microdilution (NCCLS), MSSA; format: cell-based; conditions: Staphyloccus aureus MSSA
# Protocol: as §4
# [13] = tested on: Pseudomonas aeruginosa 27853; assay: susceptibility assay by broth microdilution (NCCLS), P. aeruginosa; format: cell-based; conditions: Pseudomona aeruginosa 27853
# Protocol: as §4
# [14] = tested on: Staphylococcus aureus (MRSA); assay: susceptibility assay by broth microdilution (NCCLS), MRSA; format: cell-based; conditions: Staphyloccus aureus MRSA
# Protocol: as §4
# [15] = tested on: Candida glabrata ATCC 200918; assay: antimicrobial resazurin growth assay, C. glabrata; format: cell-based; conditions: Nakaseomyces glabratus, ATCC200918; Potato Dextrose medium
# [16] = tested on: B16-F10 (ATCC CRL-6475) mouse melanoma; assay: tumor cytotoxicity assay (resazurin), B16-F10; format: cell-based
# Protocol: as §1, with “B16-F10” for “Jurkat”, “CRL-6475)” for “TIB-152)”, “mouse melanoma” for “human acute T cell leukemia”, “in” for “in RPMI”, “DMEM (DMEM” for “medium (RPMI 1640 medium”, “HEPES,” for “HEPES, 1 mM Na pyruvate, 1X NEAA,”
# [17] = tested on: Pseudomonas aeruginosa ATCC 614000; assay: antimicrobial resazurin growth assay, P. aeruginosa; format: cell-based; conditions: ATCC614000, 37° C., 4 to 6 hours
# Protocol: as §2, §3
compound,measurement,setting,value
CCC/C=C/CC1C/C=C/C=C(C)/C=C/C=C\C(O)CC(O)C(O)/C=C/C=C/C=C/C(=O)N1 (stereo not drawn) [compound of Formula (I)],EC50,[1]; compound alone,1.29 µg/mL and 2.84 µM
same,EC50,[1]; compound with TNF-α,0.988 µg/mL and 2.18 µM
same,EC50,"[2]; further evaluation (Table 2), 48 hours, read-out: Jurkat EC50",2330 ± 1110 nM
same,EC50,"[2]; one set of evaluations, unit inferred, read-out: EC50 for the Jurkat cells",2330 ± 1110 nM
same,IC50,[3],> 4 µg/mL
same,MIC,Escherichia coli imp; Escherichia coli,> 32 µg/mL
same,MLC,Escherichia coli imp; Escherichia coli imp,>32 µg/mL
same,solubility,solubility (observation),substantially insoluble
same,MIC,[4],32 µg/mL
same,MLC,[4],>32 µg/mL
same,MIC,[5],> 32 µg/mL
same,MLC,[5],>32 µg/mL
same,IC50,[6],> 4 µg/mL
same,IC50,[7],4 µg/mL and 8.8 µM
same,EC50,"[8]; compound alone, read-out: EC50 in the HT-29 assay",0.922 µg/mL and 2.03 µM
same,EC50,"[8]; compound with interferon, read-out: EC50 in the HT-29 assay",0.263 µg/mL and 580 nM
same,EC50,"[8]; further evaluation (Table 2), read-out: HT-29 EC50",3.62 ± 2.57 µM
same,MIC,Candida albicans 90028,> 32 µg/mL
same,MLC,Candida albicans 90028,>32 µg/mL
same,IC50,[9],3 µg/mL and 6.6 µM
same,IC50,[10],1 µg/mL and 2.2 µM
same,MIC,[11],32 µg/mL
same,MLC,[11],>32 µg/mL
same,MLC,[12],>32 µg/mL
same,MIC,[12]; Staphylococcus aureus,> 32 µg/mL
same,MLC,[13],>32 µg/mL
same,MIC,[13]; Pseudomonas aeruginosa,> 32 µg/mL
same,MLC,[14],>32 µg/mL
same,MIC,[14]; Staphylococcus aureus,12 µg/mL
same,IC50,[15],3 µg/mL and 6.6 µM
same,EC50,"[16]; further evaluation (Table 2), 48 hours, read-out: B16-F10 EC50",2160 ± 870 nM
same,EC50,"[16]; one set of evaluations, unit inferred, read-out: EC50 for the B16-F10 cells",2160 ± 870 nM
same,IC50,[17],> 4 µg/mL
